In US4987126A, “3'-deamino-4'-deoxy-4'-amino anthracyclines” (Farmitalia Carlo Erba S.r.l., priority 1988, dated 1991):

How the values were obtained:
[1] = system: human lung adenocarcinoma (A549); assay: Effect against human lung adenocarcinoma (A549); format: in vivo, human (tumor transplanted in Swissnude mice); conditions: i.v. once a week for three weeks, 1 week after last treatment; optimal dose (mg/Kg): DXR 6, Ia 9, IIa 5
Protocol: (§1) The compounds were tested by dissolving them, as hydrochlorides, in water.
(§2) ^a experiment was performed in Swissnude mice, transplanted s.c. with
(§3) ^b treatment i.v. was carried out once a week for three weeks,
(§4) starting when the tumor was palpable
(§5) ^c percentage of tumor growth inhibition in respect to control was
(§6) calculated 1 week after the last treatment

[2] = system: Human Colon adenocarcinoma (LoVo); assay: Effect against Human Colon adenocarcinoma (LoVo); format: in vivo, human (tumor transplanted in Swissnude mice); conditions: for tumor inhibition: i.v. once a week for three weeks, 1 week after last treatment, optimal dose (mg/Kg): DNR 8 tox, DXR 6, Ia 7.5, IIa 4-5; for activity on LoVo tumor (in words): in vivo
Protocol: as §1
^1 experiment was performed in Swissnude mice, transplanted s.c. with
as §3, §4, §5, §6

murine Gross leukemia = assay: Effect against murine Gross leukemia; format: in vivo, murine (C3H/He mice); conditions: for T/C % (median survival time of treated mice/median survival time of control × 100): Gross leukemia, C3H/He mice, 2 × 10^6 cells i.v., single i.v. dose day 1 at optimal dose (mg/Kg): DNR 15, DXR 13-16.9, Ib 65, Ia 12.5, IIa 4, Id 6.7, IIc 1; for Toxic death: Gross leukemia-bearing C3H/He mice, autoptic findings, at optimal dose (mg/Kg): DNR 15, DXR 13-16.9, Ib 65, Ia 12.5, IIa 4, Id 6.7, IIc 1; for potency on Gross leukemia (in words): among all compounds tested; for activity on increase of the survival time of mice, Gross leukemia (in words): mouse, in vivo
Protocol: (§7) The antileukemic activity of Ia and IIa, in comparison with DXR (doxorubicin) and DNR (daunorubicin), was tested against murine P388 and Gross Leukemias.
as §1
^a Experiments were performed in C3H/He mice, inoculated i.v. with 2
(§8) ^b Single i.v. dose on day 1 after tumor inoculum.
(§9) ^c Median survival time of treated mice/median survival time of
^3 Evaluated on the basis of autoptic findings.

[3] = system: Human Colon ca. (LoVo/DXR); assay: Effect against Human Colon ca. (LoVo/DXR); format: in vivo, human (tumor transplanted in Swissnude mice); conditions: i.v. once a week for three weeks, 1 week after last treatment; optimal dose (mg/Kg): DXR 6, Ia 7.5, IIa 4
Protocol: as §1, §2, §3, §4, §5, §6

Lewis Lung ca. = assay: Effect against Lewis Lung ca.; format: in vivo, mouse (C57 B1/6 mice); conditions: for tumor inhibition / T/C (median survival time of treated mice/median survival time of control × 100): C57 B1/6 mice, 10^5 cells i.v., i.v. once a week for three weeks from day 1, optimal dose (mg/Kg): DXR 6-7.5, DNR 8, Ia 7.5, IIa 4; for tumor inhibition: 1 week after last treatment; for tumor growth inhibition, Lewis lung ca. (in words) / survival time of mice, Lewis lung ca. (in words): model sensitive to DXR; for survival time of mice, Lewis lung ca. (in words): versus DXR
Protocol: as §1
^a experiment was performed in C57 B1/6 mice, inoculated i.v. with
as §3
starting on day 1 after tumor transplant
as §5, §6
^d median survival time of treated mice/median survival time of […]

P388 ascitic leukemia = assay: Effect against P388 ascitic leukemia; format: in vivo, murine (CDF1 mice); conditions: for T/C % (median survival time of treated mice/median survival time of control × 100): P388, CDF1 mice, 10^6 cells i.v., single i.v. dose day 1 at optimal dose (mg/Kg): DNR 22.5, DXR 16.9, Ia 19.5, IIa 4; for Toxic death: P388-bearing CDF1 mice, autoptic findings, at optimal dose (mg/Kg): DNR 22.5, DXR 16.9, Ia 19.5, IIa 4
Protocol: as §7, §1
^a Experiments were performed in CDF1 mice, inoculated i.v. with
as §8, §9
^d Evaluated on the basis of autoptic findings.

[4] = system: Murine Mammary ca. (MTV/DXR); assay: Effect against Murine Mammary ca. (MTV/DXR); format: in vivo; conditions: C3H/He mice, i.v. once a week for three weeks, optimal dose (mg/Kg): DXR 6, IIa 5; for tumor inhibition: 1 week after last treatment
Protocol: as §1
^a experiment was carried out in C3H/He mice, transplanted s.c. with
as §3, §4, §5, §6

solid tumors = assay: evaluation against different human and solid tumors (Tables 4-8, overall); format: in vivo, human and murine; conditions: IIa versus Ia
Protocol: as §1

| SMILES | tumor inhibition [1] | tumor inhibition [2] | activity on LoVo tumor (in words) [2] | T/C % (median survival time of treated mice/median survival time of control × 100) (murine Gross leukemia) | Toxic death (murine Gross leukemia) | potency on Gross leukemia (in words) (murine Gross leukemia) | tumor inhibition [3] | tumor inhibition (Lewis Lung ca.) | T/C (median survival time of treated mice/median survival time of control × 100) (Lewis Lung ca.) | tumor growth inhibition, Lewis lung ca. (in words) (Lewis Lung ca.) | survival time of mice, Lewis lung ca. (in words) (Lewis Lung ca.) | T/C % (median survival time of treated mice/median survival time of control × 100) (P388 ascitic leukemia) | Toxic death (P388 ascitic leukemia) | tumor inhibition [4] | T/C [4] | potency and activity against all solid tumors tested (in words) (solid tumors) | toxicity mark at the dose ([2]; 8 mg/Kg i.v. once a week for three weeks, Swissnude mice) | activity on increase of the survival time of mice, Gross leukemia (in words) (murine Gross leukemia) |
| --- | --- | --- | --- | --- | --- | --- | --- | --- | --- | --- | --- | --- | --- | --- | --- | --- | --- | --- |
| CC(=O)[C@]1(O)Cc2c(O)c3c(c(O)c2[C@@H](O[C@H]2CC[C@@H](N)[C@H](C)O2)C1)C(=O)c1ccccc1C3=O [Compound IIa, 4-demethoxy-3'-deamino-4'-deoxy-4'-epi-aminodaunorubicin] | 49% | 54-56% | same activity than LoVo/DXR | 160% | 0/10 | most potent | 41% | 84% | 122% | active, as DXR | less active | 225% | 0/10 | 44% | 146% | more potent and active than Ia |  |  |
| COc1cccc2c1C(=O)c1c(O)c3c(c(O)c1C2=O)C[C@@](O)(C(C)=O)C[C@@H]3O[C@H]1C[C@H](N)[C@H](O)[C@H](C)O1 [DNR, daunorubicin, reference compound] |  | 54% |  | 200% | 0/10 |  |  | 47% | 135% |  |  | 222% | 0/10 |  |  |  | tox | active |
| COc1cccc2c1C(=O)c1c(O)c3c(c(O)c1C2=O)C[C@@](O)(C(=O)CO)C[C@@H]3O[C@H]1C[C@H](N)[C@H](O)[C@H](C)O1 [DXR, doxorubicin, reference compound] | 44% | 62% |  | 200-250% | 0/10 |  | 30% | 85-95% | 148-169% | sensitive to DXR |  | 225% | 0/10 | 52% | 84% |  |  | active |
| C[C@@H]1O[C@@H](O[C@H]2C[C@](O)(C(=O)CO)Cc3c(O)c4c(c(O)c32)C(=O)c2ccccc2C4=O)CC[C@H]1N [IIc, 4-demethoxy-3'-deamino-4'-deoxy-4'-epi-aminodoxorubicin] |  |  |  | 217% | 0/10 | most potent |  |  |  |  |  |  |  |  |  |  |  |  |
| CC(=O)[C@]1(O)Cc2c(O)c3c(c(O)c2[C@@H](O[C@H]2CC[C@H](N)[C@H](C)O2)C1)C(=O)c1ccccc1C3=O [Ia, 4-demethoxy-3'-deamino-4'-deoxy-4'-aminodaunorubicin] | 13% | 11% | completly inactive | 240% | 0/10 |  | 13% | 7% | 104% | inactive | inactive | 200% | 0/10 |  |  |  |  |  |
| COc1cccc2c1C(=O)c1c(O)c3c(c(O)c1C2=O)C[C@@](O)(C(C)=O)C[C@@H]3O[C@H]1CC[C@H](N)[C@H](C)O1 [Ib, 3'-deamino-4'-deoxy-4'-aminodaunorubicin] |  |  |  | 240% | 0/10 |  |  |  |  |  |  |  |  |  |  |  |  |  |
| COc1cccc2c1C(=O)c1c(O)c3c(c(O)c1C2=O)C[C@@](O)(C(=O)CO)C[C@@H]3O[C@H]1CC[C@H](N)[C@H](C)O1 [Id, 3'-deamino-4'-deoxy-4'-aminodoxorubicin] |  |  |  | 200% | 0/10 |  |  |  |  |  |  |  |  |  |  |  |  |  |
